Reference: US9445998B2, “Pharmaceutical dosage forms comprising a low-solubility drug and a polymer” (Bend Research, Inc., priority 2004, dated 2016)
≈ marks a conversion by molar mass, not a printed value. Counter-ions that a name gives are not always drawn. Like-named read-outs stand apart in the source and are kept apart here. One block for each compound: values may come before it.

Legend:
[1] = assay type: physicochemical; conditions: not told
Protocol: An Accurel® PP 1E microporous polypropylene membrane was obtained from Membrana GmbH (Wuppertal, Germany). The membrane was washed in isopropyl alcohol and rinsed in methanol in a sonicating bath for 1 minute at ambient temperature, and then allowed to air dry at ambient temperature. The feed side of the membrane was then plasma-treated to render it hydrophilic by placing a sample of the membrane in a plasma chamber. The atmosphere of the plasma chamber was saturated with water vapor at a pressure of 550 mtorr. A plasma was then generated using radio frequency (RF) power inductively coupled into the chamber via annular electrodes at a power setting of 50 watts for 45 seconds. The contact angle of a drop of water placed on the surface of the plasma-treated membrane was less than about 40°. The contact angle of a drop of water placed on the permeate side of the same membrane was greater than about 110°.
A permeate reservoir was formed by gluing a sample of the plasma-treated membrane to a glass tube having an inside diameter of about 1 inch (2.54 cm) using an epoxy-based glue (LOCTITE® E-30CL HYSOL® from Henkel Loctite Corp, Rocky Hill, Conn.). The feed-side of the membrane was oriented so that it was on the outside of the permeate reservoir, while the permeate-side of the membrane was oriented so that it was on the inside of the reservoir. The effective membrane area of the membrane on the permeate reservoir was about 4.9 cm^2. The permeate reservoir was placed into a glass feed reservoir. The feed reservoir was equipped with a magnetic stir bar and the reservoir was placed on a stir plate and the stir rate was set to 100 rpm during the test. The apparatus was placed into a chamber maintained at 37° C. for the duration of the test. Further details of the test apparatus and protocols are presented in co-pending U.S. Patent Application Ser. No. 60/557,897, entitled “Method and Device for Evaluation of Pharmaceutical Compositions,” filed Mar. 30, 2004, incorporated herein by reference.
To form the feed solution, a 1.429 mg (0.5 mgA) sample of CC-1 was weighed into a feed reservoir. (As used herein, “mgA” is milligrams of active drug, reported as the free base, non-salt form, non-hydrate drug molecule.) To this was added 5 mL of the MFD solution previously described, consisting of PBS solution containing 7.3 mM sodium taurocholic acid and 1.4 mM of 1-palmitoyl-2-oleyl-sn-glycero-3-phosphocholine (0.5% NaTC/POPC). […] The feed solution was mixed using a vortex mixer for 1 minute. Before the membrane contacted the feed solution, 5 mL of 60 wt % decanol in decane was placed into the permeate reservoir. Time zero in the test was when the membrane was placed in contact with the feed solution. A […] aliquot of the permeate solution was collected at the times indicated. Samples were then diluted in […] IPA and analyzed using HPLC.
The maximum flux of drug across the membrane (in units of μgA/cm^2-min) was determined by performing a least-squares fit to the data in Table 4 from 0 to 60 minutes to obtain the slope (CC-1: 0.26 μgA/mL-min; Control 1A: 0.13 μgA/mL-min; Control 1B: 0.07 μgA/mL-min), multiplying the slope by the permeate volume (5 mL), and dividing by the membrane area (4.9 cm^2).

[2] = for maximum dissolved drug concentration: pH 6.5 PBS solution; for solubility in phosphate buffered saline: pH 6.5
Description: It is known that some drugs may crystallize into one of several different crystal forms. Such crystal forms are often referred to as “polymorphs.” As used herein, “a high-energy crystalline form” means that the drug is in a crystal form which provides solubility improvement as described below.
By “amorphous” is meant simply that the drug is in a non-crystalline state. As used herein, the term “a major portion” of means that at least 60 wt % of the drug in the composition is in the amorphous form, rather than the crystalline form. […] Amounts of crystalline drug may be measured by Powder X-Ray Diffraction (PXRD), Scanning Electron Microscope (SEM) analysis, differential scanning calorimetry (DSC), or any other standard quantitative measurement.
An appropriate PBS solution is an aqueous solution comprising 20 mM Na2HPO4, 47 mM KH2PO4, 87 mM NaCl, and 0.2 mM KCl, adjusted to pH 6.5 with NaOH. An appropriate MFD solution is the same PBS solution wherein there is also present 7.3 mM sodium taurocholic acid and 1.4 mM of 1-palmitoyl-2-oleyl-sn-glycero-3-phosphocholine. Water is a preferred dissolution media for some fast precipitating salts. […] In such cases it may be preferred to use an unbuffered test medium such as distilled water as the dissolution medium.

[3] = Microcentrifuge dissolution test in MFD solution; assay type: physicochemical; design: AUC: concentration or dose not given beside the values; conditions: for Dissolved Ziprasidone Concentration / AUC: MFD solution pH 6.5, 37° C.; for Dissolved Ziprasidone Concentration: 200 μgA/mL if all dissolved
Protocol: A microcentrifuge dissolution test was performed to verify that ziprasidone hydrochloride monohydrate is a solubility-improved form of ziprasidone. For this test, a sufficient amount of ziprasidone hydrochloride monohydrate was added to a microcentrifuge test tube so that the concentration of ziprasidone would have been 200 μgA/mL, if all of the ziprasidone had dissolved. The tests were run in duplicate. The tubes were placed in a 37° C. temperature-controlled chamber, and 1.8 mL MFD solution at pH 6.5 and 290 mOsm/kg was added to each respective tube. The samples were quickly mixed using a vortex mixer for about 60 seconds. The samples were centrifuged at 13,000 G at 37° C. for 1 minute prior to collecting a sample. The resulting supernatant solution was then sampled and diluted 1:5 (by volume) with methanol. Samples were analyzed by high-performance liquid chromatography (HPLC) at a UV absorbance of 315 nm using a Zorbax RxC8 Reliance column and a mobile phase consisting of 55% (50 mM potassium dihydrogen phosphate, pH 6.5)/45% acetonitrile. Drug concentration was calculated by comparing UV absorbance of samples to the absorbance of drug standards. The contents of each tube were mixed on the vortex mixer and allowed to stand undisturbed at 37° C. until the next sample was taken. Samples were collected at 4, 10, 20, 40, 90, and 1200 minutes following administration to the MFD solution.
A similar test was performed with the crystalline ziprasidone free base as a control, and a sufficient amount of material was added so that the concentration of compound would have been 200 μgA/mL, if all of the ziprasidone had dissolved.
The concentrations of ziprasidone obtained in these tests were used to determine the maximum dissolved concentration of ziprasidone (“MDC90”) and the area under the concentration-versus-time curve (“AUC90”) during the initial ninety minutes.

Solubility in water = assay type: physicochemical; conditions: expressed as the free base, hydrochloride monohydrate
Description: An example of a drug having a crystalline highly soluble salt form is ziprasidone. Ziprasidone hydrochloride monohydrate has a solubility of about 10 μgA/mL (expressed as the free base) in water, whereas the free base form has a solubility of less than about 0.2 μgA/mL under the same conditions. Thus, crystalline ziprasidone hydrochloride is a solubility-improved form relative to the crystalline free base form of ziprasidone.

Compound: ziprasidone tosylate [Control 3]
Maximum Flux of Ziprasidone [1]: 0.04 μg/cm^2-min

Compound: O=C(N[C@@H](Cc1ccccc1)[C@@H](O)C(=O)N1C[C@@H](O)[C@@H](O)C1)c1cc2cc(Cl)ccc2[nH]1 [amorphous form, 5-chloro-1H-indole-2-carboxylic acid [(1S)-benzyl-3-((3R,4S)-dihydroxypyrrolidin-1-yl-)-(2R)-hydroxy-3-oxypropyl]amide]
maximum dissolved drug concentration [2]: about 600 μg/mL

Compound: O=C1Cc2cc(CCN3CCN(c4nsc5ccccc45)CC3)c(Cl)cc2N1 [Ziprasidone hydrochloride monohydrate, ziprasidone hydrochloride monohydrate]
AUC90 relative to that provided by the free base ([3]; MFD solution): 14 fold
MDC90 relative to that provided by the free base ([3]; MFD solution): 11 fold
Dissolved Ziprasidone Concentration ([3]; time 0 min): 0 μgA/mL
Dissolved Ziprasidone Concentration ([3]; time 4 min, hydrochloride monohydrate): 14 μgA/mL
Dissolved Ziprasidone Concentration ([3]; time 10 min, hydrochloride monohydrate): 15 μgA/mL
Dissolved Ziprasidone Concentration ([3]; time 20 min, hydrochloride monohydrate): 20 μgA/mL
Dissolved Ziprasidone Concentration ([3]; time 40 min, hydrochloride monohydrate): 22 μgA/mL
Dissolved Ziprasidone Concentration ([3]; time 90 min, hydrochloride monohydrate): 18 μgA/mL
Dissolved Ziprasidone Concentration ([3]; time 1200 min, hydrochloride monohydrate): 9 μgA/mL
AUC ([3]; up to time 0 min): 0 min-μgA/mL
AUC ([3]; up to time 4 min, hydrochloride monohydrate): 30 min-μgA/mL
AUC ([3]; up to time 10 min, hydrochloride monohydrate): 110 min-μgA/mL
AUC ([3]; up to time 20 min, hydrochloride monohydrate): 280 min-μgA/mL
AUC ([3]; up to time 40 min, hydrochloride monohydrate): 700 min-μgA/mL
AUC ([3]; up to time 90 min, hydrochloride monohydrate): 1,700 min-μgA/mL
AUC ([3]; up to time 1200 min, hydrochloride monohydrate): 16,400 min-μgA/mL
AUC90 ([3]; area under the concentration-versus-time curve during the initial ninety minutes, MFD solution, hydrochloride monohydrate): 1700 min·µgA/mL
MDC90 ([3]; maximum dissolved concentration during the initial ninety minutes, MFD solution, hydrochloride monohydrate): 22 µgA/mL
Maximum Flux of Ziprasidone [1]: 0.16 μgA/cm^2-min
Concentration (drug in the permeate solution) ([1]; 0 min, 100 μgA/mL, pH 6.5): 0.5 μgA/mL
Concentration (drug in the permeate solution) ([1]; 20 min, 100 μgA/mL, pH 6.5): 5.2 μgA/mL
Concentration (drug in the permeate solution) ([1]; 40 min, 100 μgA/mL, pH 6.5): 8.1 μgA/mL
Concentration (drug in the permeate solution) ([1]; 60 min, 100 μgA/mL, pH 6.5): 10.0 μgA/mL
Concentration (drug in the permeate solution) ([1]; 90 min, 100 μgA/mL, pH 6.5): 11.4 μgA/mL
Concentration (drug in the permeate solution) ([1]; 120 min, 100 μgA/mL, pH 6.5): 12.9 μgA/mL
Concentration (drug in the permeate solution) ([1]; 180 min, 100 μgA/mL, pH 6.5): 18.1 μgA/mL
Concentration (drug in the permeate solution) ([1]; 240 min, 100 μgA/mL, pH 6.5): 20.9 μgA/mL
Concentration (drug in the permeate solution) ([1]; 360 min, 100 μgA/mL, pH 6.5): 22.6 μgA/mL
solubility in water (Solubility in water): about 10 μgA/mL

Results, then the compound that gave them:

Ziprasidone Concentration in Permeate ([1]; 0 min, 100 μgA/mL, pH 6.5): 0.5 μgA/mL
Maximum Flux of Ziprasidone ([1]; 100 μgA/mL, pH 6.5): 0.13 μgA/cm^2-min
Ziprasidone Concentration in Permeate ([1]; 20 min, 100 μgA/mL, pH 6.5): 3.8 μgA/mL
Ziprasidone Concentration in Permeate ([1]; 40 min, 100 μgA/mL, pH 6.5): 6.0 μgA/mL
Ziprasidone Concentration in Permeate ([1]; 60 min, 100 μgA/mL, pH 6.5): 8.4 μgA/mL
Ziprasidone Concentration in Permeate ([1]; 90 min, 100 μgA/mL, pH 6.5): 12.4 μgA/mL
Ziprasidone Concentration in Permeate ([1]; 120 min, 100 μgA/mL, pH 6.5): 15.3 μgA/mL
Ziprasidone Concentration in Permeate ([1]; 180 min, 100 μgA/mL, pH 6.5): 20.6 μgA/mL
Ziprasidone Concentration in Permeate ([1]; 240 min, 100 μgA/mL, pH 6.5): 25.2 μgA/mL
Ziprasidone Concentration in Permeate ([1]; 360 min, 100 μgA/mL, pH 6.5): 30.6 μgA/mL
Compound: O=C1Cc2cc(CCN3CCN(c4nsc5ccccc45)CC3)c(Cl)cc2N1 [Control 1A, ziprasidone hydrochloride monohydrate]

solubility in phosphate buffered saline [2]: about 480 μg/mL
Compound: O=C(N[C@@H](Cc1ccccc1)[C@@H](O)C(=O)N1C[C@@H](O)[C@@H](O)C1)c1cc2cc(Cl)ccc2[nH]1 [A1, 5-chloro-1H-indole-2-carboxylic acid [(1S)-benzyl-3-((3R,4S)-dihydroxypyrrolidin-1-yl)-(2R)-hydroxy-3-oxpropyl]amide]

solubility in phosphate buffered saline [2]: 87 µg/mL (≈ 190 µM)
maximum dissolved drug concentration [2]: 87 µg/mL
Compound: O=C(N[C@@H](Cc1ccccc1)[C@@H](O)C(=O)N1C[C@@H](O)[C@@H](O)C1)c1cc2cc(Cl)ccc2[nH]1 [A2, 5-chloro-1H-indole-2-carboxylic acid [(1S)-benzyl-3-((3R,4S)-dihydroxypyrrolidin-1-yl)-(2R)-hydroxy-3-oxpropyl]amide]
